Measured values reported in PubChem BioAssay (NCI).
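Abbreviation: GI50, concentration required for 50% inhibition of growth. TGI: total growth inhibition.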

Tests used:
Assay in all cases: growth of human tumour cells (NCI), 384-well format
MOLT-4 leukemia = test system: MOLT-4 leukemia
NCI-H226 lung = test system: NCI-H226 lung
NCI-H23 lung = test system: NCI-H23 lung
NCI-H322M lung = test system: NCI-H322M lung
NCI-H460 NSCLC = test system: NCI-H460 NSCLC
NCI-H522 lung = test system: NCI-H522 lung
NCI/ADR-RES ovarian = test system: NCI/ADR-RES ovarian
OVCAR-3 ovarian = test system: OVCAR-3 ovarian
OVCAR-4 ovarian = test system: OVCAR-4 ovarian
OVCAR-8 ovarian = test system: OVCAR-8 ovarian
PC-3 prostate = test system: PC-3 prostate
RPMI-8226 leukemia = test system: RPMI-8226 leukemia
RXF 393 renal = test system: RXF 393 renal
SF-268 CNS = test system: SF-268 CNS
SF-295 CNS = test system: SF-295 CNS
SF-539 CNS = test system: SF-539 CNS
SK-MEL-2 melanoma = test system: SK-MEL-2 melanoma
SK-MEL-28 melanoma = test system: SK-MEL-28 melanoma
SK-MEL-5 melanoma = test system: SK-MEL-5 melanoma
SK-OV-3 ovarian = test system: SK-OV-3 ovarian
SN12C renal = test system: SN12C renal
SNB-19 CNS = test system: SNB-19 CNS
SNB-75 CNS = test system: SNB-75 CNS
SW-620 colon = test system: SW-620 colon
TK-10 renal = test system: TK-10 renal
U251 glioblastoma = test system: U251 glioblastoma
UACC-257 melanoma = test system: UACC-257 melanoma
UACC-62 melanoma = test system: UACC-62 melanoma

O=C(Nc1cccc(Br)c1)Oc1cccc2cccnc12
TGI (MOLT-4 leukemia): 3.47 µM | GI50 (NCI-H226 lung): 1.74 µM | TGI (NCI-H226 lung): 3.42 µM | GI50 (NCI-H23 lung): 2.01 µM | TGI (NCI-H23 lung): 3.73 µM | GI50 (NCI-H322M lung): 17.5 µM | TGI (NCI-H322M lung): 43 µM | GI50 (NCI-H460 NSCLC): 2.76 µM | TGI (NCI-H460 NSCLC): 6.44 µM | GI50 (NCI-H522 lung): 2.18 µM | TGI (NCI-H522 lung): 4.32 µM | GI50 (NCI/ADR-RES ovarian): 2.43 µM | TGI (NCI/ADR-RES ovarian): 4.56 µM | GI50 (OVCAR-3 ovarian): 2.12 µM | TGI (OVCAR-3 ovarian): 3.92 µM | GI50 (OVCAR-4 ovarian): 4.82 µM | TGI (OVCAR-4 ovarian): 14.9 µM | GI50 (OVCAR-8 ovarian): 2.56 µM | TGI (OVCAR-8 ovarian): 5.3 µM | GI50 (PC-3 prostate): 2.79 µM | TGI (PC-3 prostate): 5.48 µM | GI50 (RPMI-8226 leukemia): 2.26 µM | TGI (RPMI-8226 leukemia): 3.75 µM | GI50 (RXF 393 renal): 3.5 µM | TGI (RXF 393 renal): 7.85 µM | GI50 (SF-268 CNS): 3.69 µM | TGI (SF-268 CNS): 9.11 µM | GI50 (SF-295 CNS): 7.95 µM | TGI (SF-295 CNS): 23.6 µM | GI50 (SF-539 CNS): 5.79 µM | TGI (SF-539 CNS): 17.1 µM | GI50 (SK-MEL-2 melanoma): 2.8 µM | TGI (SK-MEL-2 melanoma): 5.41 µM | GI50 (SK-MEL-28 melanoma): 4.56 µM | TGI (SK-MEL-28 melanoma): 15.1 µM | GI50 (SK-MEL-5 melanoma): 5.81 µM | TGI (SK-MEL-5 melanoma): 17.9 µM | GI50 (SK-OV-3 ovarian): 17.9 µM | TGI (SK-OV-3 ovarian): 34.3 µM | GI50 (SN12C renal): 4.46 µM | TGI (SN12C renal): 15.4 µM | GI50 (SNB-19 CNS): 9.79 µM | TGI (SNB-19 CNS): 38.3 µM | GI50 (SNB-75 CNS): 4.08 µM | TGI (SNB-75 CNS): 12.9 µM | GI50 (SW-620 colon): 6.19 µM | TGI (SW-620 colon): 36.7 µM | GI50 (TK-10 renal): 6.51 µM | TGI (TK-10 renal): 33.5 µM | GI50 (U251 glioblastoma): 5.89 µM | TGI (U251 glioblastoma): 17.4 µM | GI50 (UACC-257 melanoma): 2.28 µM | TGI (UACC-257 melanoma): 4.16 µM | GI50 (UACC-62 melanoma): 3.74 µM | TGI (UACC-62 melanoma): 9.42 µM
